Measurements published in patent publication US20070117743A1, “New antitumoral compounds” (priority 2003, published 2007).
Where two headings read alike, the source gives them in different places.

Columns and labels:
Format in all cases: cell-based, human
HT-29 = assay: SRB colorimetric assay of cell growth and viability, HT-29; conditions: 48 hours exposure; for GI50: read-out: GI50 HT-29; for CC50: read-out: LC50 HT-29
PANC-1 = assay: SRB colorimetric assay of cell growth and viability, PANC-1; conditions: 48 hours exposure; for CC50: read-out: LC50 PANC-1
LoVo = assay: SRB colorimetric assay of cell growth and viability, LoVo; conditions: 48 hours exposure; for CC50: read-out: LC50 LOVO
LoVo-Dox = assay: SRB colorimetric assay of cell growth and viability, LoVo-Dox; conditions: 48 hours exposure; for CC50: read-out: LC50 LOVO-DOX
In short: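 Optical density at 490 nm of solubilized SRB, from triplicate wells, yields GI, TGI and LC values. Before staining, cells are fixed for 60 minutes at 4° C in cold TCA after a 48-hour exposure.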

SK-MEL-28 = assay: SRB colorimetric assay of cell growth and viability, SK-MEL-28; conditions: 48 hours exposure; for CC50: read-out: LC50 MEL-28
HeLa-APL = assay: SRB colorimetric assay of cell growth and viability, HeLa-APL; conditions: 48 hours exposure; for CC50: read-out: LC50 HELA-APL
LNCaP = assay: SRB colorimetric assay of cell growth and viability, LNCaP; conditions: 48 hours exposure; for GI50: read-out: GI50 LN-caP; for CC50: read-out: LC50 LN-caP
SK-BR-3 = assay: SRB colorimetric assay of cell growth and viability, SK-BR-3; conditions: 48 hours exposure
DU-145 = assay: SRB colorimetric assay of cell growth and viability, DU-145; conditions: 48 hours exposure
HeLa = assay: SRB colorimetric assay of cell growth and viability, HeLa; conditions: 48 hours exposure; for CC50: read-out: LC50 HELA
A-549 = assay: SRB colorimetric assay of cell growth and viability, A-549; conditions: 48 hours exposure; for GI50: read-out: GI50 A-549; for CC50: read-out: LC50 A-549
IGROV-ET = assay: SRB colorimetric assay of cell growth and viability, IGROV-ET; conditions: 48 hours exposure; for CC50: read-out: LC50 IGROV-ET
IGROV-1 = assay: SRB colorimetric assay of cell growth and viability, IGROV-1; conditions: 48 hours exposure
K-562 = assay: SRB colorimetric assay of cell growth and viability, K-562; conditions: 48 hours exposure; for CC50: read-out: LC50 K-562

SMILES: C/C=C1\NC(=O)[C@H](Cc2ccccc2)NC(=O)[C@@H](C(C)C)NC(=O)[C@@H]([C@@H](C)CC)NC(=O)[C@H](NC(=O)[C@H](NC(=O)[C@H](CCCN)NC(=O)[C@H]2CCCN2C(=O)[C@H](NC(=O)[C@@H](NC(=O)[C@@H](NC(=O)[C@@H](CC2CCCCC2)NC(=O)CCCC(C)C)[C@@H](C)O)C(C)C)C(C)C)[C@@H](C)CC)[C@@H](C)OC(=O)[C@H](C(C)C)NC1=O [Compound 8, [D-Cha^13]-KF]
- TGI HT-29 (HT-29): 1.99E−06 Molar
- GI50 (HT-29): 992 nM
- CC50 (HT-29): 3.99 µM
- GI50 (PANC-1): 6.53 µM
- TGI PANC-1 (PANC-1): 6.53E−06 Molar
- CC50 (PANC-1): 6.53 µM
- GI50 (LoVo): 1010 nM
- TGI LOVO (LoVo): 1.96E−06 Molar
- CC50 (LoVo): 3.82 µM
- GI50 (LoVo-Dox): 986 nM
- TGI LOVO-DOX (LoVo-Dox): 2.09E−06 Molar
- CC50 (LoVo-Dox): 4.43 µM
- GI50 (SK-MEL-28): 1450 nM
- TGI MEL-28 (SK-MEL-28): 2.42E−06 Molar
- CC50 (SK-MEL-28): 4.02 µM
- GI50 (HeLa-APL): 1700 nM
- TGI HELA-APL (HeLa-APL): 2.87E−06 Molar
- CC50 (HeLa-APL): 4.86 µM
- TGI LN-caP (LNCaP): 6.53E−06 Molar
- GI50 (LNCaP): 2790 nM
- CC50 (LNCaP): 6.53 µM
- GI50 (SK-BR-3): 0.484 µM
- LC50 (SK-BR-3): 3.17 µM
- TGI SK-BR-3 (SK-BR-3): 1.25E−06 Molar
- GI50 (DU-145): 1330 nM
- LC50 (concentration causing 50% net cell kill) (DU-145): 4.26 µM
- TGI DU-145 (DU-145): 2.38E−06 Molar
- GI50 (HeLa): 1400 nM
- TGI HELA (HeLa): 2.30E−06 Molar
- CC50 (HeLa): 3.8 µM
- TGI A-549 (A-549): 4.18E−06 Molar
- GI50 (A-549): 1970 nM
- CC50 (A-549): 6.53 µM
- GI50 (IGROV-ET): 652 nM
- TGI IGROV-ET (IGROV-ET): 1.44E−06 Molar
- CC50 (IGROV-ET): 3.16 µM
- GI50 (IGROV-1): 1040 nM
- LC50 (concentration causing 50% net cell killing) (IGROV-1): 4.29 µM
- TGI IGROV (IGROV-1): 2.11E−06 Molar
- GI50 (K-562): 1930 nM
- TGI K-562 (K-562): 4.92E−06 Molar
- CC50 (K-562): 6.53 µM

SMILES: C/C=C1\NC(=O)[C@@H](Cc2ccccc2)NC(=O)[C@H](C(C)C)NC(=O)[C@H]([C@H](C)CC)NC(=O)[C@@H](NC(=O)[C@@H](NC(=O)[C@@H](CCCN)NC(=O)[C@@H]2CCCN2C(=O)[C@@H](NC(=O)[C@H](NC(=O)[C@H](NC(=O)[C@@H](NC(=O)CCCC(C)C)C(C)C)[C@H](C)O)C(C)C)C(C)C)[C@H](C)CC)[C@H](C)OC(=O)[C@@H](C(C)C)NC1=O [Compound 69, [D-Val^1, D-Phe^3, Val^4, alo-Ile^5, alo-Thr^6, alo-Ile^7, D-Orn^8, Pro^9, Val^10, D-Val^11, D-Thr^12, Val^13] KF]
- TGI HT-29 (HT-29; SRB): 6.77E−06 Molar
- GI50 (HT-29; SRB): ≥ 6770 nM
- CC50 (HT-29; SRB): ≥ 6.77 µM
- GI50 (PANC-1; SRB): ≥ 6.77 µM
- TGI PANC-1 (PANC-1; SRB): 6.77E−06 Molar
- CC50 (PANC-1; SRB): ≥ 6.77 µM
- GI50 (LoVo; SRB): ≥ 6770 nM
- TGI LOVO (LoVo; SRB): 6.77E−06 Molar
- CC50 (LoVo; SRB): ≥ 6.77 µM
- GI50 (LoVo-Dox; SRB): ≥ 6770 nM
- TGI LOVO-DOX (LoVo-Dox; SRB): 6.77E−06 Molar
- CC50 (LoVo-Dox; SRB): ≥ 6.77 µM
- GI50 (SK-MEL-28; SRB): ≥ 6770 nM
- TGI MEL-28 (SK-MEL-28; SRB): 6.77E−06 Molar
- CC50 (SK-MEL-28; SRB): ≥ 6.77 µM
- GI50 (HeLa-APL; SRB): ≥ 6770 nM
- TGI HELA-APL (HeLa-APL; SRB): 6.77E−06 Molar
- CC50 (HeLa-APL; SRB): ≥ 6.77 µM
- TGI LN-caP (LNCaP; SRB): 6.77E−06 Molar
- GI50 (LNCaP; SRB): 2350 nM
- CC50 (LNCaP; SRB): ≥ 6.77 µM
- GI50 (SK-BR-3; SRB): 6.72 µM
- LC50 (SK-BR-3; SRB): ≥ 6.77 µM
- TGI SK-BR-3 (SK-BR-3; SRB): 6.77E−06 Molar
- GI50 (DU-145; SRB): ≥ 6770 nM
- LC50 (concentration causing 50% net cell kill) (DU-145; SRB): ≥ 6.77 µM
- TGI DU-145 (DU-145; SRB): 6.77E−06 Molar
- GI50 (HeLa; SRB): ≥ 6770 nM
- TGI HELA (HeLa; SRB): 6.77E−06 Molar
- CC50 (HeLa; SRB): ≥ 6.77 µM
- TGI A-549 (A-549; SRB): 6.77E−06 Molar
- GI50 (A-549; SRB): ≥ 6770 nM
- CC50 (A-549; SRB): ≥ 6.77 µM
- GI50 (IGROV-ET; SRB): ≥ 6770 nM
- TGI IGROV-ET (IGROV-ET; SRB): 6.77E−06 Molar
- CC50 (IGROV-ET; SRB): ≥ 6.77 µM
- GI50 (IGROV-1; SRB): 4370 nM
- LC50 (concentration causing 50% net cell killing) (IGROV-1; SRB): ≥ 6.77 µM
- TGI IGROV (IGROV-1; SRB): 6.77E−06 Molar
- GI50 (K-562; SRB): ≥ 6770 nM
- TGI K-562 (K-562; SRB): 6.77E−06 Molar
- CC50 (K-562; SRB): ≥ 6.77 µM
